Laboratory results published in patent US7642283B2, “Mitochrondrial permeability transition pore affinity labels and modulators” (Hoffmann-La Roche Inc., priority 2003, dated 2010).

Experiments:
Cyp-D = Cyp-D (Homo sapiens, UniProt P30405); assay: Cyp-D peptidyl prolyl cis-trans isomerase enzymatic activity; format: biochemical; conditions: at concentrations completely blocking MPTP
MPTP = target: T1, MPTP (Rattus norvegicus, UniProt Q9Z2L0); assay: Ca2+-induced depolarisation (membrane potential, Rhodamine-123) of rat brain mitochondria; format: biochemical
T1 construct: other: n=2; glutamate/malate; other: glutamate/malate; 20 min; mean±SEM; unit not given; other: 300 nM; relieved by 50 μM Ub5
T1 sequence (Q9Z2L0 2-283): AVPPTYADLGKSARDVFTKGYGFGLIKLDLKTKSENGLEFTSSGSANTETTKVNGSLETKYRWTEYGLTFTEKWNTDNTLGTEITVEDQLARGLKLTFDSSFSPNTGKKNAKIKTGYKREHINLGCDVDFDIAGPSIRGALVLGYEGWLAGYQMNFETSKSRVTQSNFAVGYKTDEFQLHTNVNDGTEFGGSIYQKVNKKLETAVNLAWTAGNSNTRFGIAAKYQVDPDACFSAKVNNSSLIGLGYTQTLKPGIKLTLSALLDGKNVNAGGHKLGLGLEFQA

VDAC1 = target: T2, VDAC1 (Rattus norvegicus, UniProt Q9Z2L0); assay: Affinity labeling of rat mitochondria with the tritiated spiro compound, SDS-PAGE and fluorography; format: binding; conditions: rat brain and liver mitochondria; 10 nM radiolabel; increasing concentration
T2 construct: from tissue; host or cells: Percoll-purified rat brain and liver mitochondria
T2 sequence (Q9Z2L0 whole entry): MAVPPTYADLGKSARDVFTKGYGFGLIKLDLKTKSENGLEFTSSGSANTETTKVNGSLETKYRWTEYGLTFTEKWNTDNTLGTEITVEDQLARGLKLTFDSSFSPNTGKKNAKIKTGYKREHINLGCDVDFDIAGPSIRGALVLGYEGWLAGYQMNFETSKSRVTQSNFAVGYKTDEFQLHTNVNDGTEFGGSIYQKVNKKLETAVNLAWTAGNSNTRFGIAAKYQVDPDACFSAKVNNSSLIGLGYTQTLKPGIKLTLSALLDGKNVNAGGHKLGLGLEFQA
Procedure: FIG. 6: Affinity-labeling of isolated rat brain (A) and liver (B) mitochondria. Mitochondrial preparations were incubated in the presence of 10 nM Spiro[cyclopentane-1,5′-[5H]dibenzo[a,d]cyclohepten]-2-one,10′,11′-t2-10′,11′-dihydro-3-methylene- for 15 min at 25° C. in presence or absence of various concentrations of Spiro[cyclopentane-1,5′-[5H]dibenzo[a,d]cyclohepten]-2-one,10′,11′-dihydro-3-methylene-(unlabeled). Samples were submitted to SDS-PAGE (see Experimental Procedures section for details) and fluorography. The fluorograms of the gels are shown. The molecular mass scale (kDa) is shown in the ordinate.
(§1) FIG. 8: (A) Effect of monobromobimano (MBBM) and phenylarsino oxide (PhAO) on VDAC1 labeling by Spiro[cyclopentane-1,5′-[5H]dibenzo[a,d]cyclohepten]-2-one,10′,11′-t2-10′,11′-dihydro-3-methylene- in rat brain mitochondria. Experimental conditions were as in the legend to FIG. 5. (B) Effect of various MPTP inhibitors, atractyloside (ATR) and DIDS on VDAC1 labeling by Spiro[cyclopentane-1,5′-[5H]dibenzo[a,d]cyclohepten]-2-one,10′,11′-t2-10′,11′-dihydro-3-methylene- in rat brain mitochondria. Mitochondria were exposed to DIDS for 5 min before rinsing for removal of the free agent and labeling with Spiro[cyclopentane-1,5′-[5H]dibenzo[a,d]cyclohepten]-2-one,10′,11′-t2-10′,11′-dihydro-3-methylene.
Percoll purified mitochondria (˜30 μg protein per sample) were incubated in the presence of 10 nM Spiro[cyclopentane-1,5′-[5H]dibenzo[a,d]cyclohepten]-2-one,10′,11′-t2-10′,11′-dihydro-3-methylene- in a final volume of 200 μl. After incubation for 15 min at 25° C., samples were centrifuged at 25000×g and the mitochondrial pellet rinsed twice with buffer. Samples were then solubilized in sample buffer containing β-mercaptoethanol (1 h at 37° C.) and subjected to SDS-polyacrylamide gel-electrophoresis (SDS-PAGE) on Tris-glycine Novex pre-cast mini-gels (12% monomer concentration, Invitrogen BV, The Netherlands). After Coomassie Blue staining, gels were processed for fluorography by soaking in Amplify™ (Amersham Biosciences), drying and exposing to X-ray BioMax MS film with BioMax MS intensifying screen (Kodak) at −80° C. for the appropriate time.
as §1, with “Effect” for “FIG. 8: (A) Effect”, “monobromobimano” for “monobromobimano (MBBM)”, “oxide” for “oxide (PhAO)”, “Example 12 (FIG. 8A).” for “the legend to FIG. 5. (B)”, “Spiro[cyclopentane-1,5′-[5H]dibenzo[a,d]cyclohepten]-2-one,10′,11′-t2-10′,11′-dihydro-3-methylene (FIG. 8B).” for “Spiro[cyclopentane-1,5′-[5H]dibenzo[a,d]cyclohepten]-2-one,10′,11′-t2-10′,11′-dihydro-3-methylene.”

Chain of Cyp-D (P30405 30-207): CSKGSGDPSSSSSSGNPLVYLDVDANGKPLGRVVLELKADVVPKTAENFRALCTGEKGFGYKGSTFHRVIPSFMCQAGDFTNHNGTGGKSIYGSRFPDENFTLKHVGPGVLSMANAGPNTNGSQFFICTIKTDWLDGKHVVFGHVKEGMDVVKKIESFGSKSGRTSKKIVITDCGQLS

For `C=C1CCC2(C1=O)c1ccccc1CCc1ccccc12` [Spiro[cyclopentane-1,5′-[5H]dibenzo[a,d]cyclohepten]-2-one,10′,11′-dihydro-3-methylene-], the “Inhibition of Cyp-D peptidyl prolyl cis-trans isomerase activity” value (Cyp-D) was “did not inhibit”, the “Inhibition of Ca2+-induced depolarisation” value (MPTP; 300 nM, 20 μM Ca2+, relieved by 50 μM Ub5) was “inhibited” and the “Number of Ca2+ additions necessary to induce complete depolarization” value (MPTP; series of 5 μM Ca2+ additions, membrane potential monitored) was “increased”. The “Effect of unlabeled compound on labeling of the ~32 kDa band” value (VDAC1) was “inhibited”.
